According to ChEMBL document CHEMBL1201862, “PubChem BioAssay data set” (2004):
Activity calls are given as the source filed them.

Experiments:
[1] = viability loss in Vero cells – cytotoxicity control for Vif-APOBEC3G degradation inhibitor project, dose response (AID 1117358); assay type: functional; conditions: Vero
[2] = molecular target: T1, Ubiquitin-conjugating enzyme E2 N (Homo sapiens, UniProt P61088); assay type: functional;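 further: Dose-response confirmation in a TR-FRET assay detecting UBC13-driven polyubiquitin chain formation, inhibition measured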
T1 sequence (P61088 whole entry): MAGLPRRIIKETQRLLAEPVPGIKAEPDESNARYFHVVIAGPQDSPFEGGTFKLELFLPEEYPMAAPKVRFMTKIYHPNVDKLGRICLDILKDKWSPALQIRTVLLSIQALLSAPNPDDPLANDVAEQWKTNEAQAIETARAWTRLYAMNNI

Leucine aminopeptidase = molecular target: T2, Leucine aminopeptidase (Plasmodium falciparum 3D7, UniProt Q8IL11); test: P. falciparum M17LAP inhibitors, primary screen, biochemical, fluorogenic H-Leu-NHMec substrate, 1536-well (AID 1619); assay type: functional
T2 sequence (Q8IL11 whole entry): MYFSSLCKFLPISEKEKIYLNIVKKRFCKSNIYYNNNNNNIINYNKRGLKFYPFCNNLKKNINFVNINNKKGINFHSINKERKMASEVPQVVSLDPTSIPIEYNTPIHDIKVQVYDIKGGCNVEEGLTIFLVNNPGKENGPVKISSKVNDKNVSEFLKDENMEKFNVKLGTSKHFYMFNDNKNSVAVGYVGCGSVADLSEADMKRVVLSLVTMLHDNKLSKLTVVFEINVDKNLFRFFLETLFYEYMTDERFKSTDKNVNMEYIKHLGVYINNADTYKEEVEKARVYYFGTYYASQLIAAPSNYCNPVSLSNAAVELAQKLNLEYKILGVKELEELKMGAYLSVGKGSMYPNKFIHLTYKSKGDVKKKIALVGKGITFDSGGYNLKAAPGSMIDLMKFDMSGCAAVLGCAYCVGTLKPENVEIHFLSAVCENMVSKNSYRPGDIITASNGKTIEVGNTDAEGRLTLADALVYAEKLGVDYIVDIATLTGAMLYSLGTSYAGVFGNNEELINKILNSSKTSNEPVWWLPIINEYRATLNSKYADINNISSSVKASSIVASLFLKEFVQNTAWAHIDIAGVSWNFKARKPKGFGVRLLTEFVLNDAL

[3] = molecular target: T3, Replicative DNA helicase DnaB (Mycobacterium tuberculosis, UniProt P9WMR3); test: DnaB intein splicing inhibitors, dose response, biochemical, cell-free fluorescence (AID 449749); assay type: functional
T3 sequence (P9WMR3 whole entry): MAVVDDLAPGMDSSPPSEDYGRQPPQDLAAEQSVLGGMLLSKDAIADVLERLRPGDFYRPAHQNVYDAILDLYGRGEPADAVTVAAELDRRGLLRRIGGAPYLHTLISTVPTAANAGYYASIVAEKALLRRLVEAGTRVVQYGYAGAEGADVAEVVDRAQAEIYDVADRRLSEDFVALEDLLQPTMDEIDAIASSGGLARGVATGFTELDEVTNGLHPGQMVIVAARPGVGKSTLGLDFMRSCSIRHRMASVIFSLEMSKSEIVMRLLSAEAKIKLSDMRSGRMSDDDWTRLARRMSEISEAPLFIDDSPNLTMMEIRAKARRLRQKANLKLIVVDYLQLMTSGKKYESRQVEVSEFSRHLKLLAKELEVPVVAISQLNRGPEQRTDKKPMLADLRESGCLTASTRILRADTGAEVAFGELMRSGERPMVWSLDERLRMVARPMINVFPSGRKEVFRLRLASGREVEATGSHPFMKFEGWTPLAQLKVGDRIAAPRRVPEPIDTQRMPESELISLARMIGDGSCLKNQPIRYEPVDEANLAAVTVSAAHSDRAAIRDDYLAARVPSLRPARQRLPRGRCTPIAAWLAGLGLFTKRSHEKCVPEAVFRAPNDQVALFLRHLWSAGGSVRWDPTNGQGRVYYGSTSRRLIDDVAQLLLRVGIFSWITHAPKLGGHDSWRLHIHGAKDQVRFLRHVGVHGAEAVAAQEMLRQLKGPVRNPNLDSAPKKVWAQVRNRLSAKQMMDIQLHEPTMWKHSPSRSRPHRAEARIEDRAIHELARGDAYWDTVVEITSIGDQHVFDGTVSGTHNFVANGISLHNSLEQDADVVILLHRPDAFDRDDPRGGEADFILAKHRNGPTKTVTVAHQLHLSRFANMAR

Protein RecA = molecular target: T4, Protein RecA (Mycobacterium tuberculosis, UniProt P9WHJ3); test: Fluorescence Cell-Free Homogeneous Dose Retest to Identify Inhibitors of RecA-Intein Splicing Activity. [Related pubchem assays (depositor defined):AID2097, AID2223, AID489010, AID492950]; assay type: functional
T4 sequence (P9WHJ3 whole entry): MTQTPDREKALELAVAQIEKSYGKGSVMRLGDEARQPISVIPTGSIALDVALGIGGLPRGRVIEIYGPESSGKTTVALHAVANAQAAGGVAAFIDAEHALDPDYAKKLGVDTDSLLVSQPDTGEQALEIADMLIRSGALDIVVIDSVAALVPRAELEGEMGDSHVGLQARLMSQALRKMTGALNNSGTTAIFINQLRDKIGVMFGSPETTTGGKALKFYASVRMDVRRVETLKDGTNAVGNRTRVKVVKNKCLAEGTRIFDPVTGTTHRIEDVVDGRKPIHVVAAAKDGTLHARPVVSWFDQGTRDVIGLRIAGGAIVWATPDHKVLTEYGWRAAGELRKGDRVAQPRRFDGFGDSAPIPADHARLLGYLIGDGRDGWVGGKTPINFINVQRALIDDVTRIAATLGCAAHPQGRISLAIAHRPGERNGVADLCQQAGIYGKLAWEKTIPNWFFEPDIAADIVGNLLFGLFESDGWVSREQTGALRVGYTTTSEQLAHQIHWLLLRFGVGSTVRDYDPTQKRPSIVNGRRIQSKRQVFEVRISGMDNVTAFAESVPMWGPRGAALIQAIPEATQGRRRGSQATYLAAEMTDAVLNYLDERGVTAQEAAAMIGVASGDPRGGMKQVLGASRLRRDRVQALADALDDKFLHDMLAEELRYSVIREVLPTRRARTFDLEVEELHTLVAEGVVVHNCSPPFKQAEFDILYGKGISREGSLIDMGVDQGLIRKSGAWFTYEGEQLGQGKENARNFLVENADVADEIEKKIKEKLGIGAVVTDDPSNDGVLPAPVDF

[4] = HIV-1 Vif–A3G interaction blockers – biochemical, TR-FRET, GST-Vif 1-94, biotin-A3G peptide, dose response retest, primary screen (AID 1117319); assay type: functional;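 further: TR-FRET signal of purified GST-Vif binding a biotinylated A3G peptide; inhibitors lower the FRET signal by blocking Vif and A3G binding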
Estrogen receptor beta = Estrogen receptor beta (Homo sapiens, UniProt Q92731); test: blockers of SRC-3 recruitment to ERβ – biochemical, ELISA, streptavidin-HRP readout, orthogonal assay, confirmation (AID 1060)
Cytochrome P450 3A4 = Cytochrome P450 3A4 (Homo sapiens, UniProt P08684); conditions: Potency;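 further: confirmatory qHTS run detecting inhibitors and substrates of CYP3A4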
[5] = reduced cellular PGC1a acetyl-lysine signal – cell-based, cherry-picked samples, dose response (AID 720514); assay type: functional;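 further: potency may reflect raised or lowered acetylation signal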
[6] = P. falciparum Dd2 growth inhibitors, dose response, SYBR Green, cherry-picked samples (AID 1159567); assay type: functional, cell-based
[7] = toxicity to human hepatoma HepG2 cells – cell-based, cherry-picked samples, cytotoxicity control, dose response (AID 1159577); assay type: functional
Paired box protein Pax-8 = Paired box protein Pax-8 (Homo sapiens, UniProt Q06710); test: PAX8 transcriptional activity inhibition in RMG-I – RMG-I cells, luciferase, cherry-pick, dose response (AID 687027); assay type: functional, cell-based;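 further: luciferase reporter driven by Pax8 target thyroperoxidase promoter measured by SteadyGlo luminescence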
[8] = OVCAR-3 cell viability loss – plate reader, dry powder samples, PAX8 inhibitor project, dose response (AID 743044); assay type: functional, cell-based
[9] = OVCAR8 cell viability loss – plate reader, dry powder samples, PAX8 project, dose response (AID 743197); assay type: functional, cell-based; conditions: OVCAR-8
[10] = HEK-293T cell viability reduction – luminescence, B-cell screen hits, cytotoxicity control for BCR NF-kB inhibitor project, dose response (AID 489021); assay type: functional, cell-based;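 further: HEK-293T cells carrying an NF-kB luciferase reporter; cells exposed to compound for about 14 hours before viability readout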

Cytochrome P450 3A4, sequence (P08684 whole entry): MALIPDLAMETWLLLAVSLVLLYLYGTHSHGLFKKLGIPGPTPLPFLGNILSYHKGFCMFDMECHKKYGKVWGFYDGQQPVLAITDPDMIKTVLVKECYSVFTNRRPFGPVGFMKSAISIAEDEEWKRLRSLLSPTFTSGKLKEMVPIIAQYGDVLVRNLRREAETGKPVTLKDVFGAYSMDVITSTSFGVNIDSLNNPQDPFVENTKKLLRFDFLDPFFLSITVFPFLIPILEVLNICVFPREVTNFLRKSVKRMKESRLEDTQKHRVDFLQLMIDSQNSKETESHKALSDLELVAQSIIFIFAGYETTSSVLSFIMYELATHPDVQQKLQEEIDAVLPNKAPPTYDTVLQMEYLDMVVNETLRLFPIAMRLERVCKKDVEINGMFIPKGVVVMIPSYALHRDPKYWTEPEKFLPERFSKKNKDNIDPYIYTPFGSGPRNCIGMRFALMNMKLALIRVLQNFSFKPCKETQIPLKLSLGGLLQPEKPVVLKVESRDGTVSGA
Paired box protein Pax-8, sequence (Q06710 whole entry): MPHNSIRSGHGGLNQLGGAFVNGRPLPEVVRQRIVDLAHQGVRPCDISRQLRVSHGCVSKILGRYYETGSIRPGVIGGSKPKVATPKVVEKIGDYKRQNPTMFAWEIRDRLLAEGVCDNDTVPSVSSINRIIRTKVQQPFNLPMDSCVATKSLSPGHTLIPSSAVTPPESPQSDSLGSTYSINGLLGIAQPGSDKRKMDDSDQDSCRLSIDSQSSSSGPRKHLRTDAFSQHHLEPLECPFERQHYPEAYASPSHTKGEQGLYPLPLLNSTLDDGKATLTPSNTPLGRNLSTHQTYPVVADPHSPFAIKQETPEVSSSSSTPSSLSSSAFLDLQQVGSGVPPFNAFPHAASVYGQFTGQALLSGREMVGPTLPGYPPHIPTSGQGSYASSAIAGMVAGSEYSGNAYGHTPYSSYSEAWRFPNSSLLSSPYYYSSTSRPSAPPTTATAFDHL
Estrogen receptor beta, sequence (Q92731 whole entry): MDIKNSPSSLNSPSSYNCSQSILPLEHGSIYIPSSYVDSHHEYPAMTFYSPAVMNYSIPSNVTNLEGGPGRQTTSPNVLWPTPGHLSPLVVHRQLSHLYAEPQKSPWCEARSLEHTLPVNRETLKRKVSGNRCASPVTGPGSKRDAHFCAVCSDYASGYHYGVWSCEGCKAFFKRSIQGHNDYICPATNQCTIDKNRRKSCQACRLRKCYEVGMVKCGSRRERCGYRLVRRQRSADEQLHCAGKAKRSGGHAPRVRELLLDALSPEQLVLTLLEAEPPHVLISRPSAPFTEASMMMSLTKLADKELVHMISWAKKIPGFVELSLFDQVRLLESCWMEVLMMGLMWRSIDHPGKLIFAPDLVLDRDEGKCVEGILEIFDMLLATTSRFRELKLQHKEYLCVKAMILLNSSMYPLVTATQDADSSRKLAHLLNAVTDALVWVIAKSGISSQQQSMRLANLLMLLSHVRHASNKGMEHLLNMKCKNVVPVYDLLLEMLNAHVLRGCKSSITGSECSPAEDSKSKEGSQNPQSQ

CN(C)C(=O)c1ccc(COc2ccccc2Br)o1
CC50 [1]: > 40 µM (active)

Cc1sc2ncnc(N)c2c1C
IC50 [2]: > 20 µM (inactive)

Cc1cc(-c2[nH]nc3c2C(c2cccc(O)c2)C(C#N)=C(N)O3)c(C)s1 (configuration not stated)
IC50 (Leucine aminopeptidase): 52.8 µM (active) | AC50 [3]: 4.58 µM (active) | EC50 (Protein RecA): 2.65 µM (active) | IC50 [4]: > 100 µM (active)

O=C(Nc1ccc2c(c1)OCO2)c1cc2ncc(Br)cn2n1
IC50 (Estrogen receptor beta): < 0.023 µM (not active)

COC(=O)c1c(C)cc(OC)cc1O
AC50 (Cytochrome P450 3A4): 39.8 µM (inconclusive)

CCC(=O)NC(C)c1cc(Cl)c2ccccc2c1O (configuration not stated)
IC50 [2]: > 20 µM (inactive)

COc1ccnc2c1c(=O)n(Cc1ccc(F)cc1)c(=O)n2C
IC50 [2]: > 20 µM (inactive)

OC[C@H]1[C@@H](c2ccc(C#CC3CCCC3)cc2)[C@@H]2CN(CCC(F)(F)F)CCCCN12
AC50 [5]: 11 µM (active) | AC50 [6]: 0.346 µM (active) | AC50 [7]: 10.5 µM (active)

O=C(Nc1ccc(C(F)(F)F)cc1)Nc1ccc2c(c1)[C@H]1C[C@@H](CC(=O)N3CCc4ccccc4C3)O[C@H](CO)[C@H]1O2
AC50 (Paired box protein Pax-8): 4.1 µM (active) | AC50 [8]: 23.6 µM (active) | AC50 [9]: 54 µM (active)

CCc1cccc(NC(=O)c2ccc(CNc3c(N4CCCC4)c(=O)c3=O)cc2)c1
IC50 [10]: > 80 µM (inactive)
